In patent US5216003A, “Diacid-containing benzimidazole compounds for treatment of neurotoxic injury” (G. D. Searle & Co., priority 1992, dated 1993):

Key:
[1] = tested on: NMDA receptor (rat brain hippocampal tissue); conditions: evaluation of CPP binding to rat brain hippocampal tissue; Murphy et al 1987; cited from earlier work
[2] = tested on: tonic hindlimb extensor seizures; assay: Anticonvulsant Assay (electroconvulsive shock); type: in vivo, male CD-1 mice; conditions: 30 min prior to ECS; for Protected from ECS (% of Mice): 56 mg/kg s.c., n = 10, vehicle 5 (n = 20)
[3] = molecular target: [3H]MK-801 binding in rat SPM; assay: [3H]MK-801 Binding assay; conditions: 5.0 nM [3H]MK-801, 10.0 nM L-glutamate, pH 7.4, 25 °C, 30 min
Experimental: Modulation of [^3 H]MK-801 binding was performed using Triton X-100 (0.04% v/v) treated rat SPM that had been extensively washed. Assay incubations were at 25° C. for 30 min. and contained 5.0 nM [^3 H]MK-801, L-glutamate (10.0 nM), and various concentrations of the tested compound in 50 mM Tris/acetate, pH 7.4. The assay was stopped by rapid filtration, using Brandel MB-48 Harvester, through Whatman GF/B filters treated with 0.05% polyethylenimine and the samples washed four times with 2.0 mL cold buffer. The radioactivity associated with the filter was determined by liquid scintillation spectrometry. Nonspecific binding was defined using 60 μM MK-801. IC50 were determined using a logit-log transformation of the binding data.

motor function = assay: inverted screen test for motor impairment; type: in vivo, male CD-1 mice; conditions: for Exhibiting Motor Impairments (% of Mice): 56 mg/kg s.c., n = 10, vehicle 10 (n = 20)
Experimental: This assay was used to determine the extent of in vivo protection against convulsions afforded by compound of the invention to mice subjected to artifically-induced convulsive conditions. Naive male CD-l mice (20-30 grams body weight) from Charles River Laboratories, Portage Mich. served as subjects. The mice had ad libitum access to food and water prior to testing and were maintained on a 12 hour light/12 hour dark schedule with testing during the light portion of the cycle. The mice were tested for motor impairment by use of the inverted screen test approximately 5 minutes prior to anticonvulsant testing. The inverted screen apparatus was similar to that described by Coughenour et al [Pharmacol. Biochem. Behav., 6, 351-353 (1977)]. Mice were placed on 13×13 cm pieces of #4 wire mesh screen which were mounted horizontally. The screens were then slowly inverted. […] Tonic hindlimb extensor seizures were then produced by application of electroconvulsive shock through concave electrodes to the eyeballs. Both the eyeballs and the electrodes were moistened with 0.9% saline to improve conductivity. The ECS stimulus was generated by use of a Grass model S48D stimulator with a Grass model CCUlA constant current unit in series with the output. Stimulation consisted of 10 msec pulses of a 60 pps single phase square wave for a duration of 200 msec. The current was held constant at 15 mA. Compound of Example #1 was suspended in a vehicle of 0.9% saline with a few drops of PG-Tween added. PG-Tween is a 1:1 mixture of propylene glycol and Tween 80. The Example #1 compound or vehicle was administered s.c. in a volume of 10 ml/kg body weight 30 minutes prior to application of the ECS stimulus. […] There were 10 mice in each treatment group.

[4] = tested on: pyramidal cells in CA1 of the hippocampus; assay: Forebrain Ischemia Assay (bilateral carotid occlusion, neuron count); type: in vivo, Mongolian gerbil; conditions: for # of Neurons/Field: 7 days
Experimental: This assay was used to determine the extent of protection afforded by compound of the invention to neural brain cells subjected to ischemic conditions. Male Mongolian gerbils, 50-70 gm, were used as subjects. Compound Example #1 was injected i.p. 30 minutes prior to carotid occlusion into 6 gerbils […]. In preparation for surgical procedures, the animals were lightly anesthetized with methoxyflurane and placed upside down on a heated pad with their snout within a nosecone. A 70:30 mixture of nitrous oxide and oxygen containing 0.5% halothane was circulated through the nosecone to provide continuous anesthesia throughout the surgical procedure. A midline incision was made in the neck and the carotid arteries were exposed. A length of suture thread was placed under each carotid. The thread was then tightened around each carotid and pressure applied to the thread to insure flow was occluded. Flow was occluded for 4-5 minutes and then the thread was removed. The carotids were visually inspected to confirm that reflow had occurred. The wound was then closed with autoclips and the gerbils allowed to recover. Following surgery, the gerbils were kept alive for 7 days. They were anesthetized with 100 mg/kg sodium pentobarbital and perfused transcardially with saline (with heparin) followed by buffered formalin. The brain was removed, trimmed and prepared for histological processing. Sections (10 microns) were stained with thionin. At 7 days following this type of transient global forebrain ischemia, damaged neurons in the vulnerable CAl region of the hippocampus have degenerated and been cleared away by glia. Quantification of the resulting lesion is made by counting the pyramidal cell somata in a 0.5 mm length of CAl of the hippocampus on the section corresponding to P 1.7 mm in the gerbil brain atlas. […] The effects of compound of Ex. #1 were assessed by comparing the number of neural cells found in the hippocampus of subjects treated with Ex. #1 compound with the cell number found in the appropriate control groups. […]

[5] = molecular target: NMDA receptor (N-methyl-D-aspartate-specific L-[3H]glutamate recognition site in synaptic plasma membranes); assay: NMDA-Selective Glutamate Binding Assay, L-[3H]glutamate; design: species or system rat; conditions: 12.5 nM L-[3H]glutamate, pH 7.4, 0-4 °C, 10 min; read-out: [3H]GLU Ki
Experimental: (§1) Synaptic plasma membranes (SPM) were prepared as previously described [Monahan, J. B. and Michel, J., "Identification and Characterization of an N-methyl-D-aspartate-specific L[^3 H]glutamate Recognition Site in Synaptic Plasma Membranes", J. Neurochem., 48, 1699-1708 (1987)]. The SPM were stored at a concentration of 10-15 mg/ml in 0.32M sucrose, 0.5 mM EDTA, 1 mM MgSO4, 5 mM Tris/SO4, pH 7.4, under liquid nitrogen. The identity and purity of the subcellular fractions were confirmed by both electron microscopy and marker enzymes. Protein concentrations were determined by using a modification of the method of Lowry [Ohnishi, S. T. and Barr, J. K., "A Simplified Method of Quantitating Proteins Using the Biuret and Phenol Reagents", Anal. Biochem., 86, 193-197 (1978)]. The SPM were treated identically for the [^3 H]AMPA (QUIS), [^3 H]kainate and sodium-dependent L-[^3 H]-glumatate binding assays. […] Beckman MP scintillation cocktail containing 7 mL/l acetic acid was then added and the samples counted on a Beckman LS 5800 or 3801 liquid scintillation counter with automatic corrections for quenching and counting efficiency. […] Radioligand binding to the synaptic plasma membranes was analyzed using Scatchard and Hill transformations and the Ki values of the compounds determined using logit-log transformations. […]

Kainate (KA) receptor = assay: [3H]kainate (KA) binding assay on synaptic plasma membranes; design: species or system rat; conditions: 0.5 nM [3H]kainate, pH 7.4, 0-4 °C, 60 min
Experimental: as §1

Ki [3] [µM] | Exhibiting Motor Impairments (% of Mice) (motor function; Test A) | Exhibiting Motor Impairments (% of Mice) (motor function; Test B) | Ki [5] [µM] | KA Ki (Kainate (KA) receptor) [µM] | SMILES | NMDA antagonism [1] | Protected from ECS (% of Mice) ([2]; Test A) | Protected from ECS (% of Mice) ([2]; Test B) | protection against tonic hindlimb extensor seizures ([2]; s.c.) | motor function (motor function; s.c., similar dose range as anticonvulsant effect) | # of Neurons/Field ([4]; 300 mg/kg i.p. 30 min prior to carotid occlusion, control 19.8, p < 0.01) | # of Neurons/Field ([4]; 500 mg/kg i.p. 30 min prior to carotid occlusion, control 39.8, p < 0.005) | cell loss ([4]; i.p., 300 and 500 mg/kg, vs control, Mann-Whitney U test)
– | – | – | – | – | O=C(O)C1CN(CCCP(=O)(O)O)CCN1 (stereo not shown) [CPP, 3-(2-carboxypiperazin-4-yl)propyl-1-phosphonic acid] | potent and selective NMDA antagonist | – | – | – | – | – | – | –
3.9 | 10 % of Mice | 0 % of Mice | 1.6 | > 100 | O=C(O)c1nc2cccc(CP(=O)(O)O)c2[nH]1 [Example 1, 2-carboxy-4-phosphonomethylbenzimidazole] | – | 50 % of Mice | 20 % of Mice | protected against tonic hindlimb extensor seizures in a dose-dependent fashion | impaired motor function in a similar dose range | 44.3 # of Neurons/Field | 137.4 # of Neurons/Field | significantly reduced
